Test results from patent publication US20060252798A1, “Metal ion chelators and therapeutic use thereof” (priority 2003, published 2006).

System: intracellular ROS
Experiment: Intracellular ROS assay (DCF-DA, flow cytometry), M109 cells
Format: cell-based, mouse
Settings: 1 μM
Procedure: Intracellular ROS generation was assessed using the cell-permeable dye 2′,7′-dichlorofluorescein-diacetate (DCF-DA) (Sigma). DCF-DA readily diffuses into cells and becomes highly fluorescent when oxidised by O2^•−, H2O2, or OH^−.^29 Cellular fluorescence intensity is directly proportional to the level of intracellular ROS.^29 M109 cells (1×10^5 cells/well) were incubated with or without 1 μM Dp44mT for 0-48 h or 50 μM H2O2 (positive control) for 10 min at 37° C. The cells were then incubated with DCF-DA (5 μM) for 20 min at 37° C., washed twice, and detached from the culture plates. The fluorescence of oxidised DCF in cells was measured using flow cytometry.^29)
To test whether induction of h-cytc release from the mitochondrion (FIG. 15A) and the imbalance of Bcl-2/Bax expression (FIG. 15B) was due to the presence of ROS, intracellular ROS were measured by flow cytometry using the DCFH-DA probe which becomes fluorescent when oxidised by O2^•−, H2O2, or OH^−.^29 Incubation of M109 cells with Dp44mT (1 μM) increased the levels of oxidised probe as a function of time. After 2 h, a 25±10% increase in oxidised DCFH-DA fluorescence was found compared to the 0 h time point, and this increased to 486±96% after 48 h (FIG. 15C). For comparison, a 10 min incubation with the positive control, H2O2 (50 μM), increased fluorescence to 1312±46% of the 0 h time point (FIG. 15C)

CN(C)C(=S)NN=C(c1ccccn1)c1ccccn1 [Dp44mT, di-2-pyridylketone 4,4-dimethyl-3-thiosemicarbazone]
increase in oxidised DCFH-DA fluorescence compared to the 0 h time point (2 h): 25±10% | oxidised DCFH-DA fluorescence (increased to) (48 h): 486±96%
